This note sets out measurements from ChEMBL document CHEMBL1149544, “R-(-)-N-alkyl-11-hydroxy-10-hydroxymethyl- and 10-methyl-aporphines as 5-HT1A receptor ligands” (Bioorg Med Chem Lett, 2007).

pKi: −log10 of the molar value.

One assay addresses D(2) dopamine receptor (Rattus norvegicus, UniProt P61169). The assay is described as follows: Displacement of [3H]nemonapride from rat dopamine D2 receptor.
In a further assay the target is D(1A) dopamine receptor (Rattus norvegicus, UniProt P18901). As to the kind of experiment: Displacement of [3H]SCH-23390 from rat dopamine D1 receptor.
D(1A) dopamine receptor, sequence (P18901 whole entry): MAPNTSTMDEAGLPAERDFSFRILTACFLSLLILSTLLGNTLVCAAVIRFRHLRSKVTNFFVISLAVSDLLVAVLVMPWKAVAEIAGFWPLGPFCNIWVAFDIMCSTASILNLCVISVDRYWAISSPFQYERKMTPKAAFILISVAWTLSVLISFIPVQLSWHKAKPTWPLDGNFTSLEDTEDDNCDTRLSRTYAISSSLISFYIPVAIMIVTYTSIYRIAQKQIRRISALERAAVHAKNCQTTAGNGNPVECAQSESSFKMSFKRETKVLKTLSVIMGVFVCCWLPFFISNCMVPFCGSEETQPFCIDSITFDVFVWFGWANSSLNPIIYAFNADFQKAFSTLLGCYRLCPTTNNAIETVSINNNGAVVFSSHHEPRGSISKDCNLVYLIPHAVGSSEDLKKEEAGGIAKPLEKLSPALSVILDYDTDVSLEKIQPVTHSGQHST
Assay [1] addresses T1, 5-hydroxytryptamine receptor 1A (Rattus norvegicus, UniProt P19327).
T1 sequence (P19327 whole entry): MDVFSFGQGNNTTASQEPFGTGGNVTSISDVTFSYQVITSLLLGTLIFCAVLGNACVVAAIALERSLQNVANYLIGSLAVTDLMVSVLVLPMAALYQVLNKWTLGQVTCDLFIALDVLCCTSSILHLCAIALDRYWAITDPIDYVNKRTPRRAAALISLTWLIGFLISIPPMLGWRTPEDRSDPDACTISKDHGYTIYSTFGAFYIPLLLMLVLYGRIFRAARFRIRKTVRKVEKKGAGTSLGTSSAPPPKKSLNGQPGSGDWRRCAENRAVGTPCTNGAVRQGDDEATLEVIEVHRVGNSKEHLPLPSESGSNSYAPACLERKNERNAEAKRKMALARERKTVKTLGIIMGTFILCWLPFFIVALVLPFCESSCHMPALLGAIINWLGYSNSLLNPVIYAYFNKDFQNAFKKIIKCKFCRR
The assay is described as follows: Displacement of [3H]8-OH-DPAT from rat 5HT1A receptor.

In assay [2] the target is 5-hydroxytryptamine receptor 2A (Rattus norvegicus, UniProt P14842). The assay is described as follows: Displacement of [3H]ketanserin from rat 5HT2A receptor.
5-hydroxytryptamine receptor 2A, sequence (P14842 whole entry): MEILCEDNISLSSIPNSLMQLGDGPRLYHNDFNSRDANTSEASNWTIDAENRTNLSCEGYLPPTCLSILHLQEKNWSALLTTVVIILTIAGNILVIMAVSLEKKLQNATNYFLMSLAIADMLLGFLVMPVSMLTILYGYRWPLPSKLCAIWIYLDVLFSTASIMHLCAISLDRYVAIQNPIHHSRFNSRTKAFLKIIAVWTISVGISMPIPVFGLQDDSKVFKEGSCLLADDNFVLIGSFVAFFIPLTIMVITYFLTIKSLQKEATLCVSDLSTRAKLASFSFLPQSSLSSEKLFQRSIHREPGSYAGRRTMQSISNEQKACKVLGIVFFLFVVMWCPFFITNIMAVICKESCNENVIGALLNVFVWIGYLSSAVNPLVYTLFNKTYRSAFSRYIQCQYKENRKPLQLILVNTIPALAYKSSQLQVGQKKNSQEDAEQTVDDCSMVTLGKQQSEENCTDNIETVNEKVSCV
A further assay is filed under the species Rattus norvegicus. The assay is described as follows: Selectivity for rat 5HT1A over rat 5HT2A.

D(2) dopamine receptor, sequence (P61169 whole entry): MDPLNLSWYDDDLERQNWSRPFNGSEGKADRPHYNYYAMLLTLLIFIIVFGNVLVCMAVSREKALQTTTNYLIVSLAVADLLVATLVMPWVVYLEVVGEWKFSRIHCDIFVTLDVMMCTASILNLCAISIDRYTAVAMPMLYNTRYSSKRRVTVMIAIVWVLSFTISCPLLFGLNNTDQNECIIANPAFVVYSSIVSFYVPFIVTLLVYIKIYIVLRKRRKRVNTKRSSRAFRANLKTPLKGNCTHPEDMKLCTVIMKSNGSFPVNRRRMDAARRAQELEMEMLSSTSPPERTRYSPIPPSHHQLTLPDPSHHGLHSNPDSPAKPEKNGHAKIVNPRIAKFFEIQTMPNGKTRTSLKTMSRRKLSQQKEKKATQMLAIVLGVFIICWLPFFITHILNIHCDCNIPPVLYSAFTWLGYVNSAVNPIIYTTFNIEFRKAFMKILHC

On to `CN1CCc2cccc3c2[C@H]1Cc1ccc(CO)c(O)c1-3`, for which the negative-log Ki (pKi) at D(2) dopamine receptor was 5.15; at D(1A) dopamine receptor, 5.86; in assay [1] it was 8.62; in assay [2] it was 6.86. Further, the Ratio Ki in the assay listed under Rattus norvegicus is 57.

Regarding `CCCN1CCc2cc(OC)cc3c2[C@H]1Cc1ccc(C)c(O)c1-3`, the pKi was 5.87 on D(2) dopamine receptor, 5.55 on D(1A) dopamine receptor and 6.32 in assay [1].

Regarding `Cc1ccc2c(c1O)-c1cccc3c1[C@@H](C2)N(C)CC3`, the pKi at D(2) dopamine receptor was 4.94; on D(1A) dopamine receptor, 5.02; in assay [1] it was 6.67.

Regarding `CCCN1CCc2cccc3c2[C@H]1Cc1ccc(CO)c(O)c1-3`, the negative logarithm of the Ki (pKi) on D(2) dopamine receptor was 5.22; at D(1A) dopamine receptor, 5.70; in assay [1] it was 6.43.

On to `COc1cc2c3c(c1)-c1c(ccc(C)c1O)C[C@H]3N(C)CC2`, for which the pKi on D(2) dopamine receptor was 5.42; on D(1A) dopamine receptor, 5.75; in assay [1] it was 7.67; in assay [2] it was 6.57. Moreover, the Ratio Ki in the assay listed under Rattus norvegicus is 108.
